Assay results: patent US20230323395A1, “METHODS AND COMPOSITIONS FOR THE PRODUCTION OF ADENO-[…]” (Homology Medicines, Inc., priority 2021, published 2023)

Legend:
Assay type in all cases: cell-based
[1] = tested on: HEK293 cells (AAV producer cells); assay: AAV productivity with culture media additives supplemented two hours post-transfection, shake flasks (Example 3)
Protocol: (§1) For each parameter tested, HEK293 cells were expanded by shake flask culture with a target seed density of >0.25E6 viable cells/mL and a target final density of <6E6 viable cells/mL. Expanded cells were inoculated into an Applikon 3 L Glass Bioreactor containing the appropriate amount of cell culture medium prior to transfection at a 2 L working volume.
(§2) Cell transfection was performed generally as described in Grieger et al. (2016) Molecular Therapy 24(2): 287-297. Briefly, transfection mixes were prepared by mixing calculated volumes of vector(s), transfection media, and polyethylenimine (PEI), all at ambient temperature, and allowed to equilibrate before the transfection mixes were added to the cells. […] Productivity was measured by vector genome titer and capsid yield. Vector genome (VG) titer was determined by droplet digital PCR (ddPCR) by standard methods using primer/probe sets specific to the transgene payload of the vector comprising the transgene. Capsid yield was determined using enzyme-linked immunosorbent assays (ELISAs) by standard methods with an immobilized antibody directed against an epitope of the capsid as encoded by the vector comprising the capsid sequences. Percentage of intact vector genomes (% Full capsids) was calculated by dividing the vector genome productivity determined by ddPCR by the number of capsids determined by ELISA. […]

[2] = tested on: HEK293 cells (AAV producer cells); assay: DMSO time course analysis of AAV productivity (Example 4); conditions: 1.5% (v/v) DMSO added two hours pre-transfection and up to 30 minutes post-transfection; compared to the other time points tested
Protocol: as §1, §2

[3] = tested on: second HEK293 cell line (AAV producer cells); assay: AAV productivity with DMSO supplementation 30-120 minutes post-transfection, 3 L single-use bioreactors (Example 6); conditions: DMSO 120 minutes vs 30 minutes post-transfection, pH 7.0, 39° C.
Protocol: (§3) Cell transfection was performed generally as described in Grieger et al. (2016) Molecular Therapy 24(2): 287-297. Briefly, transfection mixes were prepared by mixing calculated volumes of vector(s), transfection media, and polyethylenimine (PEI), all at ambient temperature, and allowed to equilibrate before the transfection mixes were added to the cells. Post-transfection bioreactor setpoint shifts were performed 2 hours post-transfection, and cells were harvested 72 hours post-transfection. Harvested cells were lysed as described in Grieger et al. (2016) Molecular Therapy 24(2): 287-297. Crude lysate samples were collected following centrifugation to remove cellular debris. Productivity was measured by vector genome titer and capsid yield. Vector genome (VG) titer was determined by droplet digital PCR (ddPCR) by standard methods using primer/probe sets specific to the transgene payload of the vector comprising the transgene. Capsid yield was determined using enzyme-linked immunosorbent assays (ELISAs) by standard methods with an immobilized antibody directed against an epitope of the capsid as encoded by the vector comprising the capsid sequences. Percentage of intact vector genomes (% Full capsids) was calculated by dividing the vector genome productivity determined by ddPCR by the number of capsids determined by ELISA.
Based on the findings above, the effects of post-transfection pH, and the effect of supplementing the culture media with DMSO at 30-120 minutes post-transfection were further tested using a different representative AAV particle. Experiments were performed with a second HEK293 cell line according to the methods described in Examples 1 and 5 using 3 L single-use bioreactors.
AAV productivity, in terms of vector genome (VG) titer (FIG. 8A), capsid yield (FIG. 8B), and percent intact vector genomes (% Full; FIG. 8C), was measured as described in Example 1.

[4] = tested on: second HEK293 cell line (AAV producer cells); assay: AAV productivity at different DMSO concentrations, shake flasks (Example 7)
Protocol: as §3
The conditions of DMSO supplementation were further tested using different representative AAV particles. Experiments were performed with a second HEK293 cell line according to the methods described in Example 1 using shake flasks.
AAV productivity, in terms of vector genome (VG) titer (FIGS. 9A and 10A), capsid yield (FIGS. 9B and 10B), and percent intact vector genomes (% Full; FIGS. 9C and 10C), was measured as described in Example 1.

[5] = FIG. 9, 0.5% to 2.25% DMSO two hours post-transfection, up to a DMSO concentration of 1.5%
[6] = FIG. 10, 0.75% DMSO two hours post-transfection compared with 0% DMSO
[7] = FIG. 10, 1.5% DMSO two hours post-transfection compared with 0.75% DMSO

## C[S+](C)[O-] [DMSO, dimethyl sulfoxide]
[1]; additive supplemented two hours post-transfection, ddPCR on crude lysate, over control conditions with no additive
  VG titer: general increase
[1]; supplemented two hours post-transfection, as compared to the other additives
  percent full capsids: higher percent full capsids
[2]
  percent yield of full capsids: higher percent yield of full capsids
[3]
  VG titers: similar
  capsid yields: similar
  intact vector genomes: similar
[4]; FIG. 9, 0.5% to 2.25% DMSO two hours post-transfection
  percent full capsids: increased
[4]; [5]
  VG titer: increased
  capsid titer: increased or comparable
[4]; FIG. 9, 0.5%, 0.75%, 1.5% and 2.25% DMSO compared with each other
  percent full capsids: comparable
[4]; [6]
  VG titer: increased
  capsid titer: increased
  percent full capsids: comparable
[4]; [7]
  VG titer: comparable
  capsid titer: decreased
  percent full capsids: increased
